Experimental data: patent EP1247803A2, “Indolinone compounds suitable for modulation of protein kinases” (Sugen, Inc., priority 1996, dated 1998)

How the values were obtained:
EGFR = target: T1, EGFR (Homo sapiens, UniProt P00533); assay: EGFR ELISA assay (in vitro kinase activity, EGFR captured from A431 cell lysate); assay type: biochemical; parameters: concentration or dose not given beside the values
T1 construct: Add 7 ug A431 cell lysate per well (EGFR source); endogenous in cells; host or cells: A431
How it was run: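 EGFR from A431 lysate was captured on anti-EGFR antibody-coated plates and preincubated with compounds for 30 min. Autophosphorylation ran 5 min with 3 uM ATP and 5 mM MnCl2 (final), stopped with 20 mM EDTA. Phosphotyrosine was detected by anti-pTyr ELISA with ABTS/H2O2, read at 410 nm.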

MET = MET biochemical kinase assay; parameters: species or system human; concentration or dose not given beside the values
How it was run: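 MET from cell lysates captured on ELISA plates via rabbit anti-MET cytoplasmic-domain antibody; compounds added and kinase reaction run in ATP and divalent-metal buffer. Receptor phosphotyrosine detected with HRP-conjugated anti-phosphotyrosine antibody and TMB colorimetry.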

T1 sequence (P00533 25-1210): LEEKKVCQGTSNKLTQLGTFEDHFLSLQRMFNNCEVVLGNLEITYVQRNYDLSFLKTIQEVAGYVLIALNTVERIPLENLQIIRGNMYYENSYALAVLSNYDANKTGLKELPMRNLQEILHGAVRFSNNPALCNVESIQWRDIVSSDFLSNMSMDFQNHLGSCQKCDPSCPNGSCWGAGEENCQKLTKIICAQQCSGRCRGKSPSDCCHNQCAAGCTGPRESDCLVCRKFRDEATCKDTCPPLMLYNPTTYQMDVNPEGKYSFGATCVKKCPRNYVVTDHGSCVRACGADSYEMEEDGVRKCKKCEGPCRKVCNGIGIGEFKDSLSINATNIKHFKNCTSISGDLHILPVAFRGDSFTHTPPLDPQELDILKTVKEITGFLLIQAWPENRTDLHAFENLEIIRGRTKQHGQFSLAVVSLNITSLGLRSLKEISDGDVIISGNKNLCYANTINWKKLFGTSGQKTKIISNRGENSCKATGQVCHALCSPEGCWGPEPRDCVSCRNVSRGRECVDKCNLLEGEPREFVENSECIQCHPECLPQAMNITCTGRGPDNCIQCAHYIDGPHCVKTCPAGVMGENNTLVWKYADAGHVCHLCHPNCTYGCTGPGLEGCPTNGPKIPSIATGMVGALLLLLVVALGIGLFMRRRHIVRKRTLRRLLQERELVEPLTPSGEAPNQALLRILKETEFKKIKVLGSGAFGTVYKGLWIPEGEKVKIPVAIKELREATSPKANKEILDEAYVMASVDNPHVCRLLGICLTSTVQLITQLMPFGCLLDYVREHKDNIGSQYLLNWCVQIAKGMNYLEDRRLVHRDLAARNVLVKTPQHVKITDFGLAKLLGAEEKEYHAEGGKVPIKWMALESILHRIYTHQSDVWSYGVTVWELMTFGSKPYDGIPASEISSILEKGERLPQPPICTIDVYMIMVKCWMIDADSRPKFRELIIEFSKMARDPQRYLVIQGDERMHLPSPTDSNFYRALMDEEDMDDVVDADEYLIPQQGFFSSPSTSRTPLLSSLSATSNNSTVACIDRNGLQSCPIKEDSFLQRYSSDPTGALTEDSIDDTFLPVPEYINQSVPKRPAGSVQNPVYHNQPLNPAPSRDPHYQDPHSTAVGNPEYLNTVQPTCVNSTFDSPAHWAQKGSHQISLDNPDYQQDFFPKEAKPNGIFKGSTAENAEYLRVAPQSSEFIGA

Compound	Biochem EGFR %Inhibition (EGFR) [%]	Met Kinase % Inhibition (MET) [%]
O=C1Nc2ccc(I)cc2C1=Cc1ccc(O)c(O)c1 [10719/B03]	59.5	85.8
O=C1Nc2ccc(S(=O)(=O)N3CCOCC3)cc2C1=Cc1ccco1 [10718/F10]	-12.0	23.7
O=C1Nc2c(Br)cc(Br)cc2C1=Cc1ccc(O)c(O)c1 [10719/A03]	67.7	84.1
O=C1Nc2ccc(I)cc2C1=Cc1ccc(F)cc1 [10717/B05]	31.7	87.4
COc1cc(OC)c(C=C2C(=O)Nc3ccc(Br)c(C)c32)c(OC)c1 [10719/C06]	-14.3	18.4
O=C1Nc2ccc(CCCl)cc2C1=Cc1ccc2ccccc2c1O [10718/G04]	15.8	78.1
CCOc1ccc(C=C2C(=O)Nc3ccc(I)cc32)cc1OC [10719/B02]	29.0	47.0
COc1ccc(C=C2C(=O)Nc3c(Br)cc(Br)cc32)c(OC)c1 [10719/A04]	43.7	22.9
Cc1c(Br)ccc2c1C(=Cc1ccc(O)c(O)c1)C(=O)N2 [10719/C03]	60.6	69.1
O=C1Nc2ccc(S(=O)(=O)N3CCOCC3)cc2C1=Cc1ccc(Cl)c([N+](=O)[O-])c1 [10718/F08]	-8.7	28.4
COC(=O)c1[nH]c(C)c(C=C2C(=O)Nc3ccc(CCCl)cc32)c1C(=O)OC [10718/G07]	-21.3	52.0
Cc1c(O)ccc(C=C2C(=O)Nc3ccc(S(=O)(=O)N4CCOCC4)cc32)c1O [10718/F09]	-9.5	52.7
CCOC(=O)CCc1c(C(=O)OCC)[nH]c(C=C2C(=O)Nc3ccc(S(=O)(=O)N4CCOCC4)cc32)c1CC(=O)OCC [10718/F05]	-4.9	53.7
O=C1Nc2c(Br)cc(Br)cc2C1=Cc1ccc(F)cc1Cl [10719/A09]	2.2	47.0
CN(C)c1ccc(C=C2C(=O)Nc3c(Br)cc(Br)cc32)cc1 [10719/A08]	47.3	75.5
O=C1Nc2ccc(CCCl)cc2C1=Cc1ccc(Cl)c([N+](=O)[O-])c1 [10718/G08]	-8.3	17.5
CCOc1ccccc1C=C1C(=O)Nc2ccc(I)cc21 [10717/B02]	31.7	87.5
CN(C)c1ccc(C=C2C(=O)Nc3ccc(I)cc32)cc1 [10719/B08]	42.3	33.2
O=C1Nc2ccc(I)cc2C1=Cc1ccc(F)cc1C(F)(F)F [10719/B11]	-23.9	36.5
CCc1c(C)[nH]c(C=C2C(=O)Nc3ccc(I)cc32)c1C [10719/B05]	35.9	33.6
CCOC(=O)c1c(C)[nH]c(C=C2C(=O)Nc3ccc(CCCl)cc32)c1C [10718/G02]	49.2	67.7
COC(=O)c1[nH]c(C)c(C=C2C(=O)Nc3ccc(S(=O)(=O)N4CCOCC4)cc32)c1C(=O)OC [10718/F07]	-6.3	67.9
O=C1Nc2ccc(CCCl)cc2C1=Cc1ccc([N+](=O)[O-])o1 [10718/G11]	-4.9	3.0
Cc1c(Br)ccc2c1C(=Cc1ccc(O)cc1)C(=O)N2 [10719/C07]	14.4	7.7
CCc1c(C)[nH]c(C=C2C(=O)Nc3c(Br)cc(Br)cc32)c1C [10719/A05]	23.1	39.6
